Test results as given in the METLIN SMRT retention time set (Domingo-Almenara et al. 2019).

Experiment: gradient 5% acetonitrile 3 min, to 50% in 2 min, to 85% in 15 min, held 3 min, 100 µL/min
Settings: column: Zorbax Extend-C18 2.1 x 50 mm; eluents: water / acetonitrile, 0.1% formic acid
How it was run: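 Using water and acetonitrile that each contained 0.1% formic acid, mixtures of ~100 pure standards were separated at 100 μL/min on a Zorbax Extend-C18 column (2.1 × 50 mm, 1.8 μm). The HPLC fed a quadrupole time-of-flight mass spectrometer working in positive and negative ionization mode, with dead and dwell volumes of 40 μL and 900 μL. Data were acquired over 3 months. Retention time was read from computationally picked adduct peaks after manual inspection of each.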

| SMILES | RP-LC retention time [s] |
| --- | --- |
| O=C(O)c1cnc(N2CCCCC2)nc1-c1ccncc1 | 636 |
| CCn1c(=O)c(N2CCN(C(=O)Nc3cc(Cl)c(OC)cc3OC)CC2)nc2cccnc21 | 982 |
| CCOC(=O)c1c(S(=O)(=O)N2CCC(C(=O)NCCC3=CCCCC3)CC2)c(C)n(C)c1C | 896 |
| COc1ccc(-c2nnc3n2CCN(Cc2cccc(C#N)c2)C3)cc1 | 667 |
| COc1ccc(-n2nc3c(N4CCCC(C(=O)NCc5cccs5)C4)nnc(C)c3c2C)cc1 (centres undefined) | 724 |
| O=C(Cn1c(=O)c(=O)n(Cc2ccc(Cl)cc2)c2ccccc21)N1CCN(c2ccccn2)CC1 | 654 |
| COc1ccc2[nH]cc(CN3CCC([C@H]4[C@@H](OC)C(=O)N4C(C)C)CC3)c2c1 | 623 |
| CCc1ccc(-c2csc(Cc3nc(-c4ccc5c(c4)OCO5)no3)n2)cc1 | 1300 |
| O=C1C(N2CCCN(S(=O)(=O)c3cccnc3)CC2)CCN1CC1CC1 (centres undefined) | 593 |
| CN(CC1CCOC1)C(=O)NCCc1ccccc1 (centres undefined) | 650 |
| CCN1c2ccc(C)cc2C(=O)NC12CCN(C(=O)c1cccc(C)c1)CC2 | 849 |
| CN(CC#N)C(=O)c1ccc2c(c1)CCN2C(=O)C1CC1 | 680 |
| CCN(CC)CCNC(=O)CCC(=O)N1CCc2c(c(C(=O)N3CCCCC3)nn2C)C1 | 573 |
| Cc1cc2nn(CC(=O)N3CCCC3)c(=O)n2c(-c2ccc(C(F)(F)F)cc2)n1 | 774 |
| CC(C)CNC(=O)CC1=C2CCCCC2NC1=O (centres undefined) | 644 |
| O=C([C@@H]1C[C@H](F)CN1C(=O)c1cccc(F)c1)N1CCCCC1 | 693 |
| CCSc1nnc(NC(=O)c2ccc(OC)c([N+](=O)[O-])c2)s1 | 802 |
| CCc1nc2cc(-c3noc(-c4ccc(C#N)cc4)n3)ccc2o1 | 1050 |
| O=C(Nc1ccc(SCc2nnc(-c3ccc4c(c3)OCO4)o2)cc1)C1CCCCC1 | 1020 |
| CO[C@H]1CN(C2CCN(Cc3cn(C(C)C)c4ccccc34)CC2)[C@H]1c1ccncc1 | 590 |
| COc1ccc(NC(=O)N2CCc3c(c(-c4nnc(-c5ccccc5Cl)o4)nn3C)C2)cc1 | 853 |
| Cc1ccc(NC(=O)C2CCCN(c3nc4ccccc4nc3C(F)(F)F)C2)c(C)c1 (centres undefined) | 1230 |
| Cc1ccc(CNC(=O)C2CCN(C(=O)c3nn(C)c4c3CN(C(=O)C(C)C)CC4)CC2)cc1 | 702 |

| SMILES | RP-LC retention time [s] |
| --- | --- |
| COc1cccc(C2Cn3nnc(-c4nc(-c5ccc(SC)cc5)no4)c3CO2)c1 (centres undefined) | 1200 |
| O=C(Nc1cc(-c2cccs2)no1)C1CCC1 | 862 |
| CCS(=O)(=O)N1CCCN(C2=NS(=O)(=O)C(c3ccc(C)c(C)c3)=C2C)CC1 | 872 |
| COC(=O)c1ccc(Cl)cc1NC(=O)N1CCCn2nc(-c3cccs3)cc2C1 | 1120 |
| CC1CCC(C(=O)Nc2cc3c(cc2N2CCCCC2)n(C)c(=O)c(=O)n3C)CC1 (centres undefined) | 1050 |
| Cc1ccccc1OCC(=O)N1CCN(C2=CC3=NCC(C)N3C=N2)CC1 (centres undefined) | 644 |
| O=C(NCc1csc(C2CCCN(C(=O)c3ccccc3F)C2)n1)C1CCC1 (centres undefined) | 727 |
| Cn1c(=O)c(=O)n(C)c2cc(N3CCCCC3)c(NC(=O)c3ccco3)cc21 | 840 |
| CCc1cccc(C)c1NC(=O)Cn1cnc2nc(N3CCCC(C(=O)NC4CC4)C3)sc2c1=O (centres undefined) | 694 |
| Cc1ccc(CN2CCN(C3CCN(C(=O)Nc4ccc5c(c4)OCCO5)CC3)C(=O)C2=O)cc1 | 715 |
| CN1C(=O)[C@H]2CN(Cc3cccc(OC(F)(F)F)c3)C[C@H]2C1=O | 682 |
| COc1ccc(NC(=O)C2CCN(S(=O)(=O)c3ccc4c(c3)NC(=O)C(C)O4)CC2)cc1Cl (centres undefined) | 853 |
| Cc1c(C(=O)N2CCN(C(=O)c3ccc(Br)o3)CC2)[nH]c2ccccc12 | 839 |
| CC(C)CNC(=O)c1ccn[nH]1 | 604 |
| Cc1nnc2cc(N3CCN(S(=O)(=O)c4ccc(C(C)(C)C)cc4)CC3)cnn12 | 824 |
| O=C(NCC1CCCO1)c1cn(-c2cc(-c3nc(C4CC4)no3)ccn2)cn1 (centres undefined) | 762 |
| COCCN1CCC(N2CCN(S(=O)(=O)c3ccccc3Cl)CC2)C1=O (centres undefined) | 567 |
| Cc1ccsc1C(=O)Nc1ccccc1SCc1nnc(-c2ccccc2)o1 | 1080 |
| CCCSc1nnc(NC(=O)c2c(-c3ccccc3Cl)noc2C)s1 | 956 |
| COc1ccccc1CNC(=O)C1CCCN(S(=O)(=O)c2cc(-c3noc(C)n3)cs2)C1 (centres undefined) | 892 |
| O=C(c1cnccn1)N1CCN(c2ccc(-n3cccn3)nn2)CC1 | 580 |
| Cc1noc(C)c1CCC(=O)Nc1nnc(-c2ccsc2)o1 | 628 |

Other lines, results leading:

| RP-LC retention time [s] | SMILES |
| --- | --- |
| 821 | Cc1ccc(S(=O)(=O)N2CCCC(Cn3cnc4cccnc43)C2)c(C)c1 (centres undefined) |
| 793 | CSc1cccc(NC(=O)N2CCC3(CC2)NC(=O)c2ccccc2O3)c1 |
| 772 | CCc1nnc(-c2ccc(NS(=O)(=O)c3cccs3)cc2)o1 |
| 613 | Cc1cc(NC(=O)C(=O)NCCc2ccc(S(N)(=O)=O)cc2)no1 |
| 761 | O=C(Cn1c(-c2cccs2)cc2cc(F)ccc21)N1CCN(c2ccccn2)CC1 |
| 664 | O=S(=O)(NCCOc1cc(N2CCCC2)ncn1)c1ccc(Cl)s1 |
| 727 | COc1ccc(Cl)cc1C(=O)Nc1ccc(-c2cn3ccc(C)nc3n2)cc1 |
| 954 | Cc1nc(Cn2cccc2C(=O)Nc2ccc(C)c(Cl)c2)no1 |
| 814 | Cc1ccc(CNC(=O)C2(C)CN(S(C)(=O)=O)CC(=O)N2c2ccc(F)cc2F)cc1 (centres undefined) |
| 703 | COc1cc(OC)c(NC(=O)N2CCCC(Cn3cnc4cccnc43)C2)cc1Cl (centres undefined) |
| 632 | O=C(NCc1cccnc1)c1cc2cc(Cl)ccc2[nH]1 |
| 548 | COc1cccc(OC)c1CN1CC(n2cnnc2-c2cccnc2)C1 |
| 715 | CCC(C)C(NC(=O)c1ccccn1)C(=O)Nc1nc2ccccc2[nH]1 (centres undefined) |
| 858 | Cn1ncc2c(N3CCN(c4ccccc4F)CC3)ncnc21 |
| 604 | O=C1CC(NC(=O)c2cc(-c3ccc(F)cc3)n[nH]2)CN1 (centres undefined) |
| 770 | COc1ccc(CCNC(=O)C(=O)NCc2ccc(F)cc2)cc1OC |
| 919 | COc1ccccc1-n1ccnc(NC(=O)Nc2cccc(F)c2)c1=O |
| 678 | CC(=O)Nc1ccc(NC(=O)Cn2nc(C(=O)N3CCCCC3)c3ccccc32)cc1 |
| 801 | CCOc1ccccc1NC(=O)N1CCC(n2cnc3ccccc3c2=O)CC1 |
| 666 | COc1ccc(CCc2nc3nccc(-c4cccnc4)n3n2)cc1OC |
| 1260 | CCOc1ccc(S(=O)(=O)N2CCC(c3noc(-c4ccc(Cl)cc4)n3)CC2)cc1 |
| 612 | CNC(=O)CCc1nc2ccccc2n(CC(=O)NCCc2ccc(S(N)(=O)=O)cc2)c1=O |

| RP-LC retention time [s] | SMILES |
| --- | --- |
| 770 | CCCNC(=O)NC1CCN(c2nc3ccccc3n(CC)c2=O)CC1 |
| 826 | Cc1nc(CCNC(=O)C2CCN(C(=O)c3ccc(F)cc3)CC2)cs1 |
| 828 | Cc1cccc(CNC(=O)Cn2nc(C(=O)N3CCCC3)c3ccccc32)c1 |
| 1230 | Cc1cccc(C)c1NS(=O)(=O)c1cc(-c2cc(C(F)(F)F)on2)sc1C |
| 936 | CCCCn1cc(S(=O)(=O)Nc2ccc(F)cc2)c2cccnc21 |
| 1160 | O=C(CSc1ncnc2c1cnn2-c1ccccc1)Nc1ccc(OC(F)(F)F)cc1 |
| 827 | CC1=C(c2ccccc2)S(=O)(=O)N=C1N1CCCN(C(=O)c2cc(F)ccc2F)CC1 |
| 652 | CN(CCNC(=O)CCCn1c2ccccc2c2cnn(C)c(=O)c21)Cc1ccccc1 |
| 1080 | Cc1cc2nc(C(=O)Nc3ccc(F)c(Cl)c3)cc(C)n2n1 |
| 874 | Cc1ccc(-c2cc3c4nn(CC(=O)NCc5ccco5)c(=O)n4ccn3n2)cc1C |
| 891 | O=C(Cc1csc(NC(=O)Nc2ccccc2)n1)NCCc1c[nH]c2ccccc12 |
| 1100 | CN(C)c1cccc(-c2nc(-c3cn(-c4ccc(F)cc4)nn3)no2)c1 |
| 683 | CCOc1ccc(Nc2c(C(=O)N3CCCCC3CC)cnc3nc(C)ccc23)cc1 (centres undefined) |
| 589 | O=C(NCc1cccnc1)c1nc2ccccn2c1-c1ccsc1 |
| 710 | CCc1noc(NC(C)=O)c1-c1ccc(OC)c(S(=O)(=O)N2CCCC2)c1 |
| 830 | Cc1ccc(C(=O)NCC(=O)N2CCCc3ccccc32)s1 |
| 563 | CCOCCCNC(=O)Nc1ccc2nc3n(c(=O)c2c1)CCCC3 |
| 971 | Cn1c(=O)c2c(-c3cccc(Br)c3)n(Cc3ccco3)cc2n(C)c1=O |
| 680 | O=C(Nc1ccccc1C(F)(F)F)N1CCCC(Cn2cnc3cccnc32)C1 (centres undefined) |
| 649 | COc1ccc(OC)c(NC(=O)N2CCC(n3cnc4cccnc43)CC2)c1 |
| 661 | CN1C(=O)c2cccn2CC1CNC(=O)NCCc1ccccc1 (centres undefined) |
| 666 | Cc1ccccc1NS(=O)(=O)c1cc2n(c1)CCCN(C)C2=O |
